Measurements taken from ChEMBL document CHEMBL1201862, “PubChem BioAssay data set” (2004).
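The compound was tested at five concentrations on cells cultured in 96-well plates, with a 48-hour exposure period. GI50 = concentration required for 50% inhibition of growth.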 The source made the active and inactive calls. Cut-off read from the data, not from the text of the source: active = GI50 up to about 1.1 µM and inactive = higher.

Legend:
Test in all cases: growth of human tumour cells (NCI), 48 h
UACC-257 = system: UACC-257
PC-3 = system: PC-3
CAKI-1 = system: CAKI-1
M19-MEL = system: M19-MEL
OVCAR-3 = system: OVCAR-3
K562 = system: K562
HOP-92 = system: HOP-92
RXF 631 = system: RXF 631
SN12C = system: SN12C
U-251 = system: U-251
SNB-78 = system: SNB-78
RXF 393 = system: RXF 393
HOP-18 = system: HOP-18
TK-10 = system: TK-10
BT-549 = system: BT-549
Malme-3M = system: Malme-3M
ACHN = system: ACHN
MCF7 = system: MCF7
Hs-578T = system: Hs-578T
DMS-114 = system: DMS-114
NCI-H522 = system: NCI-H522
DMS-273 = system: DMS-273
SF-539 = system: SF-539
HCT-15 = system: HCT-15
UO-31 = system: UO-31
CCRF-CEM = system: CCRF-CEM
HOP-62 = system: HOP-62
SR = system: SR
SF-295 = system: SF-295
SK-MEL-5 = system: SK-MEL-5
NCI-H460 = system: NCI-H460
SNB-19 = system: SNB-19
786-0 = system: 786-0
IGROV-1 = system: IGROV-1
HCC 2998 = system: HCC 2998
SK-MEL-28 = system: SK-MEL-28
HT-29 = system: HT-29
SK-MEL-2 = system: SK-MEL-2
LOX IMVI = system: LOX IMVI
OVCAR-5 = system: OVCAR-5
UACC-62 = system: UACC-62
HL-60 = system: HL-60
HCT-116 = system: HCT-116
EKVX = system: EKVX
SW-620 = system: SW-620
OVCAR-8 = system: OVCAR-8
DLD-1 = system: DLD-1
MDA-MB-435 = system: MDA-MB-435
LXFL 529 = system: LXFL 529
OVCAR-4 = system: OVCAR-4
DU-145 = system: DU-145
T47D = system: T47D
COLO 205 = system: COLO 205
SK-OV-3 = system: SK-OV-3
XF498 = system: XF498
NCI-H226 = system: NCI-H226
M14 = system: M14
NCI-H23 = system: NCI-H23
KM12 = system: KM12
A498 = system: A498
RPMI-8226 = system: RPMI-8226
KM-20L2 = system: KM-20L2
SNB-75 = system: SNB-75
SF-268 = system: SF-268
MDA-MB-231 = system: MDA-MB-231
MDA-N = system: MDA-N

Measured: GI50

Cc1nc2c(o1)C(=O)c1ccccc1/C2=N\c1ccccc1
inactive: UACC-257 2050 nM | PC-3 2030 nM | CAKI-1 17900 nM | M19-MEL 1820 nM | OVCAR-3 1590 nM | K562 2620 nM | HOP-92 2270 nM | RXF 631 > 10000 nM | SN12C 2040 nM | U-251 1760 nM | SNB-78 3220 nM | RXF 393 1570 nM | HOP-18 1850 nM | TK-10 20700 nM | BT-549 1680 nM | Malme-3M 1360 nM | ACHN 3180 nM | MCF7 2370 nM | Hs-578T 1620 nM | DMS-114 1480 nM | NCI-H522 1860 nM | DMS-273 2490 nM | SF-539 2900 nM | UO-31 2980 nM | CCRF-CEM 4040 nM | HOP-62 2450 nM | SR 4300 nM | SF-295 4530 nM | SK-MEL-5 1350 nM | NCI-H460 5660 nM | SNB-19 3960 nM | 786-0 8380 nM | IGROV-1 7980 nM | HCC 2998 15200 nM | SK-MEL-28 2000 nM | HT-29 10200 nM | SK-MEL-2 1460 nM | LOX IMVI 1590 nM | OVCAR-5 5850 nM | UACC-62 2460 nM | HL-60 2420 nM | HCT-116 2170 nM | EKVX 5780 nM | SW-620 2580 nM | OVCAR-8 2000 nM | DLD-1 13700 nM | LXFL 529 3230 nM | OVCAR-4 2400 nM | DU-145 1740 nM | T47D 2520 nM | COLO 205 13900 nM | SK-OV-3 17400 nM | XF498 2860 nM | NCI-H226 13600 nM | NCI-H23 1380 nM | KM12 6070 nM | A498 > 10000 nM | RPMI-8226 1970 nM | KM-20L2 20500 nM | SNB-75 2120 nM | SF-268 4010 nM
2250 nM: HCT-15
active: MDA-MB-435 352 nM | M14 841 nM | MDA-MB-231 968 nM | MDA-N 292 nM
